In brackets after ≈: the same amount, converted by molar mass.
Key:
[1] = tested on: Trypanosoma brucei brucei; test: Antitrypanosomal activity against bloodstream form of Trypanosoma brucei brucei […] after 48 hrs by alamar blue assay; format: functional
[2] = tested on: Trypanosoma brucei brucei; test: Antitrypanosomal activity against TbAT1-deficient Trypanosoma brucei brucei after 48 hrs by alamar blue assay; format: functional, organism-based
[3] = tested on: Trypanosoma brucei brucei; test: Resistance factor, ratio of IC50 for Trypanosoma brucei brucei B48 to IC50 for wild-type bloodstream form of Trypanosoma brucei brucei s427; format: functional
[4] = tested on: Trypanosoma brucei brucei; test: Resistance factor, ratio of IC50 for TbAT1-deficient bloodstream form of Trypanosoma brucei brucei to IC50 for wild-type bloodstream form of Trypanosoma brucei brucei s427; format: functional
[5] = tested on: Trypanosoma brucei brucei; test: Antitrypanosomal activity against TbAT1 and HAPT1-deficient Trypanosoma brucei brucei B48 after 48 hrs by alamar blue assay; format: functional, organism-based
[6] = tested on: Trypanosoma brucei brucei; test: Antitrypanosomal activity against bloodstream form of Trypanosoma brucei brucei s427 after 48 hrs by alamar blue assay; format: functional, organism-based; details: s427, 48 h
[7] = Trypanosoma brucei, 48 h, read-out: IC50
[8] = Trypanosoma brucei, B48, 48 h, read-out: IC50

| Compound | MIC [1] [µM] | also measured |
| --- | --- | --- |
| CC(C)[C@@H]1N=C(C2CCCCC2)c2cc(NC(=N)N)ccc2N(Cc2ccc(NC(=N)N)cc2)C1=O | 0.78 (≈ 0.381 µg/mL) |  |
| O=C1Nc2ccccc2C(c2ccccc2)=N[C@H]1Cc1ccccc1 | 6.25 (≈ 2.04 µg/mL) | IC50 [2, 7]: 7840 nM; Ratio IC50 [3]: 0.67; Ratio IC50 [4]: 0.57; IC50 [5, 8]: 9230 nM; IC50 [6]: 13800 nM |
| O=C1Nc2ccccc2C(c2ccccc2)=N[C@@H]1Cc1ccccc1 | 50 (≈ 16.3 µg/mL) |  |
| CC(C)[C@H]1N=C(c2ccccc2)c2ccccc2NC1=O | 200 (≈ 55.7 µg/mL) |  |
| CC(C)[C@@H]1N=C(c2ccccc2)c2ccccc2NC1=O | 100 (≈ 27.8 µg/mL) |  |
| CC(C)C1=NCC(=O)Nc2ccccc21 | > 400 |  |
| CC(C)C1=N[C@@H](Cc2ccccc2)C(=O)Nc2ccccc21 | 50 (≈ 14.6 µg/mL) |  |
| CC(C)[C@@H]1N=C(C2CCCCC2)c2ccccc2NC1=O | 25 (≈ 7.11 µg/mL) |  |
| CC(C)[C@@H]1N=C(C2CCCCC2)c2cc([N+](=O)[O-])ccc2NC1=O | 12.5 (≈ 4.12 µg/mL) |  |
| O=C1Nc2ccccc2C(C2CCCCC2)=N[C@H]1Cc1ccccc1 | 12.5 (≈ 4.16 µg/mL) |  |
| O=C1Nc2ccccc2C(c2ccccn2)=N[C@H]1Cc1ccccc1 | 100 (≈ 32.7 µg/mL) |  |
| CC(C)[C@@H]1N=C(c2ccccc2)c2ccccc2N(C)C1=O | 100 (≈ 29.2 µg/mL) |  |
| CC(C)[C@@H]1N=C(c2ccccc2)c2ccccc2N(Cc2ccccc2)C1=O | 200 (≈ 73.7 µg/mL) |  |
| CC(C)[C@@H]1N=C(c2ccccc2)c2ccccc2N(Cc2ccccc2-c2ccccc2)C1=O | 12.5 (≈ 5.56 µg/mL) |  |
| CC(C)[C@@H]1N=C(c2ccccc2)c2ccccc2N(Cc2cccc3cccnc23)C1=O | 25 (≈ 10.5 µg/mL) |  |
| CC(C)[C@H]1N=C(c2ccccc2)c2ccccc2N(C)C1=O | 200 (≈ 58.5 µg/mL) |  |
| CC(C)[C@H]1N=C(c2ccccc2)c2ccccc2N(Cc2ccccc2)C1=O | 12.5 (≈ 4.61 µg/mL) |  |
| CN1C(=O)[C@H](Cc2ccccc2)N=C(c2ccccc2)c2ccccc21 | 50 (≈ 17 µg/mL) |  |
| O=C1[C@H](Cc2ccccc2)N=C(c2ccccc2)c2ccccc2N1Cc1ccccc1 | 6.25 (≈ 2.6 µg/mL) |  |
| O=C1[C@H](Cc2ccccc2)N=C(c2ccccc2)c2ccccc2N1Cc1ccc(-c2ccccc2)cc1 | 6.25 (≈ 3.08 µg/mL) |  |

| Compound | MIC [1] [µM] | also measured |
| --- | --- | --- |
| O=C1[C@H](Cc2ccccc2)N=C(c2ccccc2)c2ccccc2N1Cc1cccc(-c2ccccc2)c1 | 25 (≈ 12.3 µg/mL) |  |
| O=C1[C@H](Cc2ccccc2)N=C(c2ccccc2)c2ccccc2N1Cc1ccccc1-c1ccccc1 | 6.25 (≈ 3.08 µg/mL) |  |
| O=C1[C@H](Cc2ccccc2)N=C(c2ccccc2)c2ccccc2N1Cc1cccc2cccnc12 | 25 (≈ 11.7 µg/mL) |  |
| N#CCN1C(=O)[C@H](Cc2ccccc2)N=C(c2ccccc2)c2ccccc21 | 3.1 (≈ 1.13 µg/mL) |  |
| O=C(O)CN1C(=O)[C@H](Cc2ccccc2)N=C(c2ccccc2)c2ccccc21 | 50 (≈ 19.2 µg/mL) |  |
| CN1C(=O)[C@@H](Cc2ccccc2)N=C(c2ccccc2)c2ccccc21 | 400 (≈ 136 µg/mL) |  |
| O=C1[C@@H](Cc2ccccc2)N=C(c2ccccc2)c2ccccc2N1Cc1ccccc1 | 12.5 (≈ 5.21 µg/mL) |  |
| O=C1[C@H](COCc2ccccc2)N=C(c2ccccc2)c2ccccc2N1Cc1ccc(-c2ccccc2)cc1 | 25 (≈ 13.1 µg/mL) |  |
| O=C1[C@H](COCc2ccccc2)N=C(c2ccccc2)c2ccccc2N1Cc1cccc(-c2ccccc2)c1 | 25 (≈ 13.1 µg/mL) |  |
| O=C1[C@H](COCc2ccccc2)N=C(c2ccccc2)c2ccccc2N1Cc1cccc2cccnc12 | 12.5 (≈ 6.22 µg/mL) |  |
| CC(C)C1=NCC(=O)N(C)c2ccccc21 | 400 (≈ 86.5 µg/mL) |  |
| CC(C)C1=N[C@@H](Cc2ccccc2)C(=O)N(C)c2ccccc21 | 25 (≈ 7.66 µg/mL) |  |
| O=C1[C@H](Cc2ccccc2)N=C(C2CCCCC2)c2ccccc2N1Cc1ccccc1 | 6.25 (≈ 2.64 µg/mL) |  |
| Nc1ccc(CN2C(=O)[C@H](Cc3ccccc3)N=C(c3ccccc3)c3ccccc32)cc1 | 12.5 (≈ 5.39 µg/mL) |  |
| Nc1cccc(CN2C(=O)[C@H](Cc3ccccc3)N=C(c3ccccc3)c3ccccc32)c1 | 6.25 (≈ 2.7 µg/mL) |  |
| Nc1ccccc1CN1C(=O)[C@H](Cc2ccccc2)N=C(c2ccccc2)c2ccccc21 | 6.25 (≈ 2.7 µg/mL) |  |
| CC(C)[C@@H]1N=C(C2CCCCC2)c2ccccc2N(Cc2ccc(N)cc2)C1=O | 6.25 (≈ 2.43 µg/mL) |  |
| CC(C)[C@@H]1N=C(C2CCCCC2)c2cc(N)ccc2N(Cc2ccc(N)cc2)C1=O | 6.25 (≈ 2.53 µg/mL) |  |
| Nc1ccc(CN2C(=O)[C@H](Cc3ccccc3)N=C(C3CCCCC3)c3ccccc32)cc1 | 6.25 (≈ 2.73 µg/mL) |  |
| Nc1cccc(CN2C(=O)[C@H](Cc3ccccc3)N=C(C3CCCCC3)c3ccccc32)c1 | 6.25 (≈ 2.73 µg/mL) |  |

| Compound | MIC [1] [µM] | also measured |
| --- | --- | --- |
| Nc1ccc(CN2C(=O)[C@H](Cc3ccccc3)N=C(c3ccccn3)c3ccccc32)cc1 | 25 (≈ 10.8 µg/mL) |  |
| CC(C)[C@@H]1N=C(C2CCCCC2)c2cc(N)ccc2NC1=O | 100 (≈ 29.9 µg/mL) |  |
| N=C(N)Nc1ccc(CN2C(=O)[C@H](Cc3ccccc3)N=C(c3ccccc3)c3ccccc32)cc1 | 0.78 (≈ 0.369 µg/mL) | IC50 [2, 7]: 640 nM; Ratio IC50 [3]: 2.68; Ratio IC50 [4]: 1.29; IC50 [5, 8]: 1310 nM; IC50 [6]: 490 nM |
| N=C(N)Nc1cccc(CN2C(=O)[C@H](Cc3ccccc3)N=C(c3ccccc3)c3ccccc32)c1 | 0.78 (≈ 0.369 µg/mL) | IC50 [2, 7]: 390 nM; Ratio IC50 [3]: 3.52; Ratio IC50 [4]: 1.45; IC50 [5, 8]: 940 nM; IC50 [6]: 270 nM |
| N=C(N)Nc1ccccc1CN1C(=O)[C@H](Cc2ccccc2)N=C(c2ccccc2)c2ccccc21 | 1.56 (≈ 0.739 µg/mL) |  |
| CC(C)[C@@H]1N=C(C2CCCCC2)c2ccccc2N(Cc2ccc(NC(=N)N)cc2)C1=O | 6.25 (≈ 2.7 µg/mL) |  |
| N=C(N)Nc1ccc(CN2C(=O)[C@H](Cc3ccccc3)N=C(C3CCCCC3)c3ccccc32)cc1 | 0.78 (≈ 0.374 µg/mL) |  |
| N=C(N)Nc1cccc(CN2C(=O)[C@H](Cc3ccccc3)N=C(C3CCCCC3)c3ccccc32)c1 | 1.56 (≈ 0.748 µg/mL) | IC50 [2, 7]: 510 nM; Ratio IC50 [3]: 2.8; Ratio IC50 [4]: 1.53; IC50 [5, 8]: 930 nM; IC50 [6]: 330 nM |
| N=C(N)Nc1ccc(CN2C(=O)[C@H](Cc3ccccc3)N=C(c3ccccn3)c3ccccc32)cc1 | 3.13 (≈ 1.49 µg/mL) |  |
| CC(C)[C@@H]1N=C(C2CCCCC2)c2cc(NC(=N)N)ccc2NC1=O | 1.56 (≈ 0.533 µg/mL) |  |
| N=C(N)NCCC[C@@H]1N=C(c2ccccc2)c2ccccc2NC1=O | 400 (≈ 134 µg/mL) |  |
| O=C(CN1C(=O)[C@H](Cc2ccccc2)N=C(c2ccccc2)c2ccccc21)N1CCN(c2ncccn2)CC1 | 12.5 (≈ 6.63 µg/mL) |  |
| O=C(CN1C(=O)[C@H](Cc2ccccc2)N=C(c2ccccc2)c2ccccc21)N1CCN(c2ccccn2)CC1 | 6.25 (≈ 3.31 µg/mL) |  |
| O=C(CN1C(=O)[C@H](Cc2ccccc2)N=C(c2ccccc2)c2ccccc21)N1CCNCC1 | 12.5 (≈ 5.66 µg/mL) |  |
| Nc1nc(N)nc(Nc2ccc([As]3SCC(CO)S3)cc2)n1 (stereo not given) [MELARSOPROL] |  | IC50 [2]: Not Active; IC50 [5]: Not Active |
| N=C(N)c1ccc(OCCCCCOc2ccc(C(=N)N)cc2)cc1 [PENTAMIDINE] |  | IC50 [2]: Not Active; IC50 [5]: Not Active |
| O=C1CN=C(c2ccccc2)c2ccccc2N1 [RO-052921] | 400 (≈ 94.5 µg/mL) |  |
| Cc1ccc(C(=O)Nc2ccc(S(=O)(=O)O)c3cc(S(=O)(=O)O)cc(S(=O)(=O)O)c23)cc1NC(=O)c1cccc(NC(=O)Nc2cccc(C(=O)Nc3cc(C(=O)Nc4ccc(S(=O)(=O)O)c5cc(S(=O)(=O)O)cc(S(=O)(=O)O)c45)ccc3C)c2)c1 [SURAMIN HEXASODIUM] | 0.13 |  |
